Source: paper PMC3038857, “Using Nuclear Receptor Activity to Stratify Hepatocarcinogens” (PLoS ONE, 2011)

What was measured:
Assay type in all cases: cell-based
[1] = target: T1, PPARG (peroxisome proliferator-activated receptor gamma) (Homo sapiens, UniProt P37231); test: ATG_PPARg_TRANS: Factorial reporter gene assay (HepG2)
T1 construct: expressed in transfected cells; host or cells: HepG2
T1 sequence (P37231 1-505): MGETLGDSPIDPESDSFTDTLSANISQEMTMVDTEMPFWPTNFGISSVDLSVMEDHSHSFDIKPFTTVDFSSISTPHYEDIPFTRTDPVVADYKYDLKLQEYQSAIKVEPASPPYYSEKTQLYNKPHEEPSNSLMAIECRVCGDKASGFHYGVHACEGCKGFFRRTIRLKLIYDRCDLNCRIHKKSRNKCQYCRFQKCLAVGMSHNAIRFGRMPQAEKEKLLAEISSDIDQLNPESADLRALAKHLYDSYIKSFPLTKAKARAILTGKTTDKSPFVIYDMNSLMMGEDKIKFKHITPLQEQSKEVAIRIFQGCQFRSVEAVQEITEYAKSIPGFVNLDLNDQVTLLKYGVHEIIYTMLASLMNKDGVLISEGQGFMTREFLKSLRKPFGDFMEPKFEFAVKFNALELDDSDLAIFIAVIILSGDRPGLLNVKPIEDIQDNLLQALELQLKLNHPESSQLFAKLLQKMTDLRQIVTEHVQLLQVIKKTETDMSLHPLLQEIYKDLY
Method in brief: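 Seven test concentrations were run, beginning at the MTC and diluted three-fold serially. PXRE activity came from cis reporters, a 48-site MRTU library in HepG2 hepatoma cells. ERRg, FXR and PPARg activity came from trans one-hybrid reporters, an additional 25-member MRTU set.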

[2] = target: T2, ESR1 (estrogen receptor 1) (Homo sapiens, UniProt P03372); test: ATG_ERE_CIS: Factorial reporter gene assay (HepG2); conditions: HepG2
T2 construct: expressed in transfected cells; host or cells: HepG2
T2 sequence (P03372 whole entry): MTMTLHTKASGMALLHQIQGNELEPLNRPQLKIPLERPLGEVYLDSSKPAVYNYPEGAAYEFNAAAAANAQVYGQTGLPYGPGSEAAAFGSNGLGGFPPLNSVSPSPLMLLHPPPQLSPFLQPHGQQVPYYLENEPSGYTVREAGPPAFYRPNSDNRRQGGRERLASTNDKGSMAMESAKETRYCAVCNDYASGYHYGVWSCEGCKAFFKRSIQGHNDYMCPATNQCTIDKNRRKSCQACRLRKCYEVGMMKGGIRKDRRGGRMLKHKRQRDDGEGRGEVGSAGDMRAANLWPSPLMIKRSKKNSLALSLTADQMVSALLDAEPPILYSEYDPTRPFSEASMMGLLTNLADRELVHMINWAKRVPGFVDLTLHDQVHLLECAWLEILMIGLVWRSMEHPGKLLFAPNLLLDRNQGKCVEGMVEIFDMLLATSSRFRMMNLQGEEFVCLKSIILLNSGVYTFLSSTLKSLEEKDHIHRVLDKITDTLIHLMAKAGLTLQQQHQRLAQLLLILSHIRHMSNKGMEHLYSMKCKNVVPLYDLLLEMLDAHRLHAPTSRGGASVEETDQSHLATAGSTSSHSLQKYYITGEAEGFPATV
Method in brief: (§1)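 Seven concentrations per chemical, three-fold dilutions down from the MTC, were tested in HepG2 hepatoma cells. Those cells carried a multiple reporter transcription unit library, read either as cis transcription-factor-site reporters or as a trans mammalian one-hybrid panel for nuclear receptors.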

[3] = target: T3, AHR (aryl hydrocarbon receptor) (Homo sapiens, UniProt P35869); test: ATG_Ahr_CIS: Factorial reporter gene assay (multiplexed transcription reporter, HepG2); set-up: scale not given here
T3 construct: endogenous in cells; host or cells: HepG2
T3 sequence (P35869 11-848): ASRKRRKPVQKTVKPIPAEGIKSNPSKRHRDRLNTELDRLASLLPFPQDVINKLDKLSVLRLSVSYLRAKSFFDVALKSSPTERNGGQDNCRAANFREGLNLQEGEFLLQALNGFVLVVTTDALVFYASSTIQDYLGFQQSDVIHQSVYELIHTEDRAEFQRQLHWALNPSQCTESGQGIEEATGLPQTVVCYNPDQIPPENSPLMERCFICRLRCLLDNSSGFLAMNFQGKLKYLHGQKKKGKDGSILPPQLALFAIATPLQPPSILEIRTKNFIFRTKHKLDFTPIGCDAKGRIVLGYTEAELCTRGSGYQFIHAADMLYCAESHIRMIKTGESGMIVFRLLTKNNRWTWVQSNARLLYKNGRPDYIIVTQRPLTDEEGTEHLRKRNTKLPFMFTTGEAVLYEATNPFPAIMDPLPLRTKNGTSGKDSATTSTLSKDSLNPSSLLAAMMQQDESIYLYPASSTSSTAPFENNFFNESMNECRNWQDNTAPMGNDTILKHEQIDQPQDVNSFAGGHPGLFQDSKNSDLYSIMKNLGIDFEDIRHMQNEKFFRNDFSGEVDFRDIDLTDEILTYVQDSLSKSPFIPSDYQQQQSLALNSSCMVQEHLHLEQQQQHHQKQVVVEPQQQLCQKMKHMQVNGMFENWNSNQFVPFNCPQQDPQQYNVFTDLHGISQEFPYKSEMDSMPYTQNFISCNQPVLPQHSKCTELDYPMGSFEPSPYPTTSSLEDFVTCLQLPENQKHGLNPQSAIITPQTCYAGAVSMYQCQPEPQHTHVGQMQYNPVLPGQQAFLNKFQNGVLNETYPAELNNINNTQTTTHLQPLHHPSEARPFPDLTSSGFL
Method in brief: as §1

[4] = test system: CYP1A2; test: CLZD_CYP1A2: Change in expression of CYP1A2 (primary human hepatocytes); conditions: 24 hr
Method in brief: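 Chemicals are tested in human hepatocyte primary cultures over 0.004-40 µM (5 concentrations) for 6, 24 or 48 hr, and concentration- and time-dependent transcript changes are read by quantitative nuclease protection assay.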

[5] = target: T4, ERa (ESR1) (Homo sapiens, UniProt P03372); test: NCGC_ERalpha_Antagonist: GAL4 BLAM Reporter gene assay: ERa; conditions: antagonist mode; scale not given, looks like -log10 of molar active concentration; 0 = no activity
T4 construct: expressed in transfected cells; host or cells: HEK293
T4 sequence (P03372 whole entry, the tested form may be a part): as the sequence (P03372 whole entry) above

[6] = test system: CYP3A4; test: CLZD_CYP3A4: Change in expression of CYP3A4 (primary human hepatocytes); conditions: 24 hr
Method in brief: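 Primary human hepatocyte cultures were exposed to test chemicals at 5 concentrations (0.004-40 µM) for 6, 24 or 48 hr.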

[7] = HepG2, scale not given, looks like -log10 of molar active concentration, 0 = no activity
[8] = scale not given, looks like -log10 of molar active concentration, 0 = no activity

SMILES | ATG_PPARg_TRANS [1, 7] | ATG_ERE_CIS [2, 8] | ATG_Ahr_CIS [3, 7] | CLZD_CYP1A2_24 [4, 8] | NCGC_ERalpha_Antagonist [5] | CLZD_CYP3A4_24 [6, 8] | CLZD_CYP1A2_24 [4] | CLZD_CYP3A4_24 [6] | also measured
COC(=O)c1ccccc1CS(=O)(=O)NC(=O)Nc1nc(OC)cc(OC)n1 [r33] | 0 | 0 | 0 | 0 | 0 | 0 | – | – | –
CC(C)N1C(=O)c2ccccc2NS1(=O)=O [r37] | 0 | 0 | 0 | 0 | 0 | 0 | – | – | –
COc1ccc(-c2ccccc2)cc1NNC(=O)OC(C)C [r38] | 4.301 | 0 | – | 5.768 | 4.31 | 0 | – | – | –
Cc1c(COC(=O)C2C(/C=C(\Cl)C(F)(F)F)C2(C)C)cccc1-c1ccccc1 (stereo not shown) [r39] | 0 | 0 | 0 | 0 | 0 | 4.923 | – | – | –
CC(C)(c1ccc(O)cc1)c1ccc(O)cc1 [r40] | 4.569 | 6.194 | 4.495 | 0 | 4.77 | 0 | – | – | –
OB(O)O [r41] | 0 | 0 | 0 | – | 0 | – | – | – | –
O=C(Nc1ccccc1-c1ccc(Cl)cc1)c1cccnc1Cl [r42] | 4.62 | 0 | 0 | 4.876 | 0 | 4.98 | – | – | –
C=CCOC(=O)C(C)(C)OC(=O)c1cc(-n2c(=O)cc(C(F)(F)F)n(C)c2=O)ccc1Cl [r47] | 0 | 0 | 0 | – | 0 | – | – | – | –
CNC(=O)Oc1cccc2ccccc12 [r52] | – | 4.244 | 4.456 | – | 0 | – | – | – | –
Cc1ccccc1CO[C@@H]1C[C@@]2(C(C)C)CC[C@]1(C)O2 [r64] | 4.377 | – | 0 | 5.157 | – | 5.116 | – | – | –
C#CCC1=C(C)[C@H](OC(=O)[C@H]2[C@H](C=C(C)C)C2(C)C)CC1=O [r249] | – | – | – | – | – | – | 5.3 | 5.185 | ATG_PPARg_TRANS ([1]; HepG2): 4.357
CCCN(CCC)c1c([N+](=O)[O-])cc(C(F)(F)F)c(N)c1[N+](=O)[O-] [r252] | – | – | – | – | – | – | 5.166 | 5.248 | ATG_Ahr_CIS ([3]; HepG2): 4.444
CSc1nc(NC(C)C)nc(NC(C)C)n1 [r256] | – | – | – | – | – | – | 5.251 | 5.143 | ATG_PPARg_TRANS ([1]; HepG2): 4.284
CCCC1COC(Cn2cncn2)(c2ccc(Cl)cc2Cl)O1 (stereo not shown) [r262] | – | – | – | – | – | – | 5.229 | 6.273 | ATG_Ahr_CIS ([3]; HepG2): 4.367
CC(C)=CC1C(C(=O)OCc2coc(Cc3ccccc3)c2)C1(C)C (stereo not shown) [r280] | – | – | – | – | – | – | – | – | ATG_PPARg_TRANS ([1]; HepG2 reporter): 4.495
CCc1ccc(C(=O)NN(C(=O)c2cc(C)cc(C)c2)C(C)(C)C)cc1 [r290] | – | – | – | – | – | – | 4.896 | 5.287 | ATG_PPARg_TRANS ([1]; HepG2 reporter): 5.201; ATG_Ahr_CIS ([3]; HepG2 reporter): 4.337
CCc1nn(C)c(C(=O)NCc2ccc(C(C)(C)C)cc2)c1Cl [r291] | – | – | – | – | – | – | – | 5.218 | ATG_PPARg_TRANS ([1]; HepG2 reporter): 5.31
COc1cccc(C(=O)NN(C(=O)c2cc(C)cc(C)c2)C(C)(C)C)c1C [row 202] | – | – | – | – | – | – | 4.924 | 5.142 | ATG_Ahr_CIS ([3]; HepG2): 4.409
CCc1cccc(C)c1N(C(=O)CCl)C(C)COC (stereo not shown) [row 208] | – | – | – | – | – | – | – | 4.911 | ATG_PPARg_TRANS ([1]; HepG2): 4.854
CCN(CC)C(=O)C(C)Oc1cccc2ccccc12 (stereo not shown) [row 219] | – | – | – | – | – | – | 5.174 | 4.548 | ATG_PPARg_TRANS ([1]; HepG2): 4.301; ATG_ERE_CIS [2]: 4.481; ATG_Ahr_CIS ([3]; HepG2): 4.456
CC(C)Oc1cc(-n2nc(C(C)(C)C)oc2=O)c(Cl)cc1Cl [row 225] | – | – | – | – | – | – | 5.223 | 6.246 | ATG_PPARg_TRANS ([1]; HepG2): 4.31
